Measured values published in patent publication US8916599B2, “1H-benz imidazole-5-carboxamides as anti-inflammatory agents” (Orexo AB, priority 2008, dated 2014).

Biological target: T1, recombinant human mPGES-1 (Homo sapiens, UniProt O14684)
T1 construct: made in house; host or cells: Rosetta E. coli (microsomal/membrane fraction)
T1 sequence (O14684 1-152): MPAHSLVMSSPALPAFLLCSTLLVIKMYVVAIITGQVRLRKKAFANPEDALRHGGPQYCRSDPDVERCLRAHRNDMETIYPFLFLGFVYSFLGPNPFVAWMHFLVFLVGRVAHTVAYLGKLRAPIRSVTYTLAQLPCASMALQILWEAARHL
Assay: mPGES-1 inhibition test (microsomes, PGH2 substrate, HTRF detection of PGE2)
Type: biochemical
Conditions: for inhibition at 10 µM: inhibition of mPGES-1 at 10 μM
Outline: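 First, inhibitor is incubated with microsomal enzyme from Rosetta E. coli in KPi pH 7.4 containing 2.5 mM GSH for 25 minutes at room temperature. Next, PGH2 is added and stopped after one minute with FeCl2 stop solution. Finally, diluted samples undergo HTRF PGE2 quantification.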

SMILES	inhibition at 10 µM [%]	inhibition at 1 µM (inhibition of mPGES-1 at 1 μM (marked in cell)) [%]
Cn1c(Nc2c(Cl)cccc2Cl)nc2cc(C(=O)Nc3cc(Cl)ccn3)c(F)cc21 [Example 129, 2-(2,6-Dichloro-phenylamino)-6-fluoro-1-methyl-1H-benzimidazole-5-carboxylic acid (4-chloro-pyridin-2-yl)-amide]	92	–
COc1cc2[nH]c(Nc3c(Cl)cccc3Cl)nc2cc1C(=O)Nc1ccc(C(F)(F)F)cn1 [Example 633, 2-(2,6-Dichlorophenylamino)-N-(5-trifluoromethyl-pyridin-2-yl)-6-methoxy-1H-benzimidazole-5-carboxamide]	99	–
COc1cc2[nH]c(Nc3c(Cl)ccc(Cl)c3F)nc2cc1C(=O)NC1CCCCC1 [Example 612, 2-(3,6-Dichloro-2-fluoro-phenylamino)-N-cyclohexyl-6-methoxy-1H-benzimidazole-5-carboxamide]	99	–
Cn1c(Nc2c(Cl)cccc2Cl)nc2cc(C(=O)NC3CCC(F)(F)CC3)c(F)cc21 [Example 156, 2-(2,6-Dichloro-phenylamino)-6-fluoro-1-methyl-1H-benzimidazole-5-carboxylic acid (4,4-difluoro-cyclohexyl)-amide]	100	–
Cc1c[n+]([O-])c(NC(=O)c2ccc3nc(Nc4c(Cl)cccc4Cl)[nH]c3c2)cc1Cl [Example 418, 4-Chloro-2-(2-(2,6-dichlorophenylamino)-1H-benzimidazole-6-carboxamido)-5-methylpyridine 1-oxide]	100	–
Cn1c(Nc2ccc(F)cc2Cl)nc2cc(C(=O)Nc3ccc(Br)cc3)ccc21 [Example 456, N-(4-Bromophenyl)-2-(2-chloro-4-fluorophenylamino)-1-methyl-1H-benzimidazole-5-carboxamide]	100	–
CCOc1cc2[nH]c(Nc3c(Cl)ccc(Cl)c3F)nc2cc1C(=O)N[C@H]1CC[C@H](C(F)(F)F)CC1 [Example 599, 2-(3,6-Dichloro-2-fluoro-phenylamino)-6-ethoxy-N-(trans-4-trifluoromethyl-cyclohex-1-yl)-1H-benzimidazole-5-carboxamide]	92	–
Cn1c(Nc2c(Cl)cccc2Cl)nc2cc(C(=O)NC34CC5CC(CC(C5)C3)C4)c(F)cc21 [Example 165, 2-(2,6-Dichloro-phenylamino)-6-fluoro-1-methyl-1H-benzimidazole-5-carboxylic acid adamantan-1-ylamide]	98	–
Cc1cc(NC(=O)c2ccc3c(c2)nc(Nc2c(Cl)cccc2Cl)n3C)ncc1Cl [Example 202, 2-(2,6-Dichloro-phenylamino)-1-methyl-1H-benzimidazole-5-carboxylic acid (5-chloro-4-methyl-pyridin-2-yl)-amide]	100	–
O=C(Nc1cccc(Cl)n1)c1ccc2[nH]c(Nc3c(Cl)cccc3Cl)nc2c1 [Example 185, 2-(2,6-Dichloro-phenylamino)-1H-benzimidazole-5-carboxylic acid (6-chloro-pyridin-2-yl)-amide]	98	–
Cn1c(Nc2c(Cl)cccc2Cl)nc2cc(C(=O)NCCc3ccccn3)ccc21 [Example 258, 2-(2,6-Dichloro-phenylamino)-1-methyl-1H-benzimidazole-5-carboxylic acid (2-pyridin-2-yl-ethyl)-amide]	83	–
COc1cc2c(cc1C(=O)NC1CCC(C)(C)CC1)nc(Nc1c(Cl)ccc(Cl)c1F)n2C [Example 621, 2-(3,6-Dichloro-2-fluoro-phenylamino)-6-methoxy-N-(4,4-dimethyl-cyclohex-1-yl)-1-methyl-1H-benzimidazole-5-carboxamide]	99	–
Cn1c(Nc2c(Cl)cccc2Cl)nc2cc(C(=O)NCc3ncccc3F)c(F)cc21 [Example 536, 2-(2,6-Dichlorophenylamino)-6-fluoro-N-((3-fluoropyridin-2-yl)methyl)-1-methyl-1H-benzimidazole-5-carboxamide]	89	–
O=C(Nc1ccc(Br)cc1)c1cc2nc(Nc3c(F)ccc(F)c3Cl)[nH]c2cc1OCC(F)(F)F [Example 595, 2-(2-Chloro-3,6-difluoro-phenylamino)-N-(4-bromophenyl)-6-(2,2,2-trifluorethoxy)-1H-benzimidazole-5-carboxamide]	100	–
O=C(NCc1ccc(C(F)(F)F)cn1)c1ccc2[nH]c(Nc3c(Cl)cccc3Cl)nc2c1 [Example 222, 2-(2,6-Dichloro-phenylamino)-1H-benzimidazole-5-carboxylic acid (5-trifluoromethyl-pyridin-2-ylmethyl)-amide]	74	–
Cn1c(Nc2c(Cl)cccc2Cl)nc2cc(C(=O)NC3CCC4(CC3)CC4)c(F)cc21 [Example 419, 2-(2,6-Dichlorophenylamino)-6-fluoro-1-methyl-N-(spiro[2.5]octan-6-yl)-1H-benzimidazole-5-carboxamide]	100	–
Cc1cccc(Cl)c1Nc1nc2cc(C(=O)Nc3ccccc3)ccc2[nH]1 [Example 12, 2-(2-Chloro-6-methyl-phenylamino)-1H-benzimidazole-5-carboxylic acid-phenylamide]	99	–
CN(C)C(=O)c1ccc(Nc2nc3cc(C(=O)Nc4ccc(Br)cc4)ccc3n2C)c(Cl)c1 [Example 562, N-(4-Bromophenyl)-2-(2-chloro-4-(dimethylcarbamoyl)-phenylamino)-1-methyl-1H-benzimidazole-5-carboxamide]	97	–
Cn1c(Nc2c(Cl)cccc2Cl)nc2cc(C(=O)NC3CCC4(CC4)C3)c(F)cc21 (stereo not shown) [Example 415, 2-(2,6-Dichlorophenylamino)-6-fluoro-1-methyl-N-(spiro[2.4]heptan-5-yl)-1H-benzimidazole-5-carboxamide]	100	–
COc1cc2[nH]c(Nc3c(Cl)ccc(C)c3F)nc2cc1C(=O)NC1CCC(C)(C)CC1 [Example 626]	–	92
Cc1cc(C(=O)Nc2ccc(Br)cc2)cc2nc(Nc3c(Cl)cccc3Cl)[nH]c12 [Example 51, 2-(2,6-Dichloro-phenylamino)-7-methyl-1H-benzimidazole-5-carboxylic acid (4-bromo-phenyl)-amide]	89	–
CCOc1cc2[nH]c(Nc3c(Cl)ccc(Cl)c3F)nc2cc1C(=O)Nc1ccc(Br)cc1 [Example 604, 2-(3,6-Dichloro-2-fluoro-phenylamino)-N-(4-bromo-phenyl)-6-ethoxy-1H-benzimidazole-5-carboxamide]	100	–
Cn1c(Nc2c(Cl)ccc(Cl)c2F)nc2cc(C(=O)N[C@H]3CC[C@H](C(F)(F)F)CC3)c(F)cc21 [Example 601, 2-(3,6-Dichloro-2-fluoro-phenylamino)-6-fluoro-N-(trans-4-trifluoromethyl-cyclohex-1-yl)-1-methyl-1H-benzimidazole-5-carboxamide]	92	–
O=C(NC1CCCCCC1)c1ccc2[nH]c(Nc3c(Cl)cccc3Cl)nc2c1 [Example 214, 2-(2,6-Dichloro-phenylamino)-1H-benzimidazole-5-carboxylic acid cycloheptyl-amide]	100	–
O=C(NC1COc2ccccc2C1)c1ccc2[nH]c(Nc3c(Cl)cccc3Cl)nc2c1 (stereo not shown) [Example 153, 2-(2,6-Dichloro-phenylamino)-1H-benzimidazole-5-carboxylic acid chroman-3-ylamide]	98	–
